{"source": "patent US10463673B2", "about": "“Nanoparticulate meloxicam formulations” (Recro Pharma, Inc., priority 2003, dated 2019)", "origin": "cited, not measured here", "key": {"[1]": {"conditions": "oral; for Cmax, mean (% CV) / tmax, mean (% CV): 15 mg capsules"}, "[2]": {"conditions": "Single dose, hepatic insufficiency (Fasted)"}, "[3]": {"conditions": "Single dose, renal failure (Fasted)"}, "[4]": {"conditions": "Steady state, elderly females (Fed)"}, "[5]": {"conditions": "Steady state, elderly males (Fed)"}}, "note": "Where two headings read alike, the source gives them in different places.", "data": [{"compound": "Cc1cnc(NC(=O)C2=C(O)c3ccccc3S(=O)(=O)N2C)s1", "note": "[Meloxicam, 4-hydroxy-2-methyl-N-(5-methyl-2-thiazolyl)-2-H-1,2-benzothiazine-3-carboxamide 1,1-dioxide]", "values": [{"measurement": "Cmax, mean (% CV)", "setting": "[1]; [2]", "value": "0.84 (29) μg/mL"}, {"measurement": "tmax, mean (% CV)", "setting": "[1]; [2]", "value": "10 (87) h"}, {"measurement": "Cmax, mean (% CV)", "setting": "[1]; [3]", "value": "0.59 (36) μg/mL"}, {"measurement": "tmax, mean (% CV)", "setting": "[1]; [3]", "value": "4 (65) h"}, {"measurement": "Cmax, mean (% CV)", "setting": "[1]; [4]", "value": "3.2 (24) μg/mL"}, {"measurement": "tmax, mean (% CV)", "setting": "[1]; [4]", "value": "6 (27) h"}, {"measurement": "Cmax, mean (% CV)", "setting": "[1]; [5]", "value": "2.3 (59) μg/mL"}, {"measurement": "tmax, mean (% CV)", "setting": "[1]; [5]", "value": "5 (12) h"}, {"measurement": "time of second meloxicam concentration peak post-dose", "setting": "[1]; fasted steady state conditions", "value": "twelve to fourteen"}, {"measurement": "solubility in methanol", "setting": "methanol", "value": "very slightly soluble"}, {"measurement": "solubility in strong acids and bases", "setting": "strong acids and bases, compared with water", "value": "higher solubility"}, {"measurement": "solubility in water", "setting": "water", "value": "practically insoluble"}, {"measurement": "COX-2/COX-1 inhibition ratio", "setting": "COX-2", "value": 0.09}]}]}
